Experimental data from paper PMC8780828 (Viruses, 2021).
Where two headings read alike, the source gives them in different places.

Assays:
[1] = test system: pseudovirus NL4-3ΔEnv-NanoLuc/SARS-CoV-2; test: organism not typed; format: cell-based; conditions: HT-1080; n=3
[2] = test system: pseudovirus NL4-3ΔEnv-NanoLuc/SARS-CoV-2; test: organism not typed; format: cell-based; conditions: A549-ACE2; n=3
[3] = test system: pseudovirus NL4-3ΔEnv-NanoLuc/SARS-CoV; test: microbe, parasite or virus in culture; format: cell-based; conditions: Severe acute respiratory syndrome coronavirus, HT-1080; n=3; read-out: IC50
[4] = test system: pseudovirus NL4-3ΔEnv-NanoLuc/SARS-CoV; test: microbe, parasite or virus in culture; format: cell-based; conditions: Severe acute respiratory syndrome coronavirus, A549-ACE2; n=3; read-out: IC50
[5] = test system: pseudovirus NL4-3ΔEnv-NanoLuc/MERS-CoV; test: microbe, parasite or virus in culture; format: cell-based; conditions: Middle East respiratory syndrome-related coronavirus, Huh-7; n=3; read-out: IC50
[6] = test system: control pseudovirus NL4-3.Luc.R-E-/A-MLV; test: Control pseudovirus A-MLV assay in 293T/ACE2 cells; format: cell-based, amphotropic murine leukemia virus (A-MLV); conditions: NL43, 293T/ACE2
[7] = test system: NL4-3ΔEnv-NanoLuc/SARS-CoV-2; test: organism not typed; format: cell-based
[8] = test system: pseudovirus NL4-3ΔEnv-NanoLuc/SARS-CoV-2; test: SARS-CoV-2 pseudovirus assay with pre-treated 293T/ACE2 cells; format: cell-based; conditions: 293T/ACE2 cells pre-treated with compound 30 min before infection
[9] = test system: SARS-CoV-2 (US_WA-1/2020); format: cell-based
[10] = target: β-lactamase; format: biochemical
[11] = test system: Trypsin; format: biochemical
[12] = target: malate dehydrogenase (MDH); format: biochemical
[13] = test system: pseudovirus SARS-CoV-2; test: organism not typed; format: cell-based
[14] = target: T1, CYP3A (Homo sapiens, UniProt P08684); conditions: n=1
T1 sequence (P08684 2-503): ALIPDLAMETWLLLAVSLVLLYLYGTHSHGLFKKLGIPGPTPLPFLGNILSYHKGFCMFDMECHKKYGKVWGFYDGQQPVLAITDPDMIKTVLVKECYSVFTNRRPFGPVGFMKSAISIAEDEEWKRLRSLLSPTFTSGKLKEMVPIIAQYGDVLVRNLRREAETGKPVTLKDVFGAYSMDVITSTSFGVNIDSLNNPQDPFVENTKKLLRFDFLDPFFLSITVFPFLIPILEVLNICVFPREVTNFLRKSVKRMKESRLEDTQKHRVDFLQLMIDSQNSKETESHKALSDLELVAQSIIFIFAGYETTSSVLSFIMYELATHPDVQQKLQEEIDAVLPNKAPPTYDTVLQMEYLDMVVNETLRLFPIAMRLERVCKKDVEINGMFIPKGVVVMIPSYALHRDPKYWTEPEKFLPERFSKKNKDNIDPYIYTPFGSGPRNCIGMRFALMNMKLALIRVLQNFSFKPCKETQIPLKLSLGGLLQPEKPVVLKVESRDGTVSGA

[15] = rat, in vivo
[16] = in vitro; conditions: both, human, microsomes, pH 7.4
[17] = in vitro; conditions: both, human, plasma
[18] = target: T2, CYP2B6 (Homo sapiens, UniProt P20813); test: in vitro; conditions: microsomes, pH 7.4
T2 sequence (P20813 whole entry): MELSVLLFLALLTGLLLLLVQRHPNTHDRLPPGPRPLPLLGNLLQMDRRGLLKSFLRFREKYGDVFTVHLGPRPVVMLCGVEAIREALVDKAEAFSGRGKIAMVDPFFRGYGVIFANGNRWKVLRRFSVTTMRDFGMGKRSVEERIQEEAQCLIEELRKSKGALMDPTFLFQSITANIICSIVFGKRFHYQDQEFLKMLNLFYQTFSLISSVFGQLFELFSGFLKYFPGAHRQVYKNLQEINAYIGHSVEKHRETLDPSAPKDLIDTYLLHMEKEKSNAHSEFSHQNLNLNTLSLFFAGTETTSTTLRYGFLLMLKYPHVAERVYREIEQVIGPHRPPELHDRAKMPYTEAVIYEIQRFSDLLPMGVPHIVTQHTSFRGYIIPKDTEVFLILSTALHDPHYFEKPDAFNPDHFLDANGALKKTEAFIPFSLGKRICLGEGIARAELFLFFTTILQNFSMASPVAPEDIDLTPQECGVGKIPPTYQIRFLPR

[19] = target: T3, CYP2C8 (Homo sapiens, UniProt P10632); test: in vitro; conditions: microsomes, pH 7.4
T3 sequence (P10632 whole entry): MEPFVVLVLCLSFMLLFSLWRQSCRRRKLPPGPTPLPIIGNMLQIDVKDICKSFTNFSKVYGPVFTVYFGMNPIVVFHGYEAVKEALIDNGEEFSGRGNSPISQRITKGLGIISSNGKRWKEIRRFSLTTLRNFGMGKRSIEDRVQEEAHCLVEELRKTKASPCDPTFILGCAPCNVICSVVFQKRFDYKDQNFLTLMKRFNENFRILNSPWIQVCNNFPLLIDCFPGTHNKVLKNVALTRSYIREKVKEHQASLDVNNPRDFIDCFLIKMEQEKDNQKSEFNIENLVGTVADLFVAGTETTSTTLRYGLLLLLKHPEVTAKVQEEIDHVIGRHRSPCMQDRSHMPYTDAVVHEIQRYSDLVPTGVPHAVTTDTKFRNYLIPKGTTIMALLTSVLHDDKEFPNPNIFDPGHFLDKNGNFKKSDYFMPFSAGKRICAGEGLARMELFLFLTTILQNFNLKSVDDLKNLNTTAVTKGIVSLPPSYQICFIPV

[20] = target: T4, CYP2C9 (Homo sapiens, UniProt P11712); test: in vitro; conditions: microsomes, pH 7.4
T4 sequence (P11712 whole entry): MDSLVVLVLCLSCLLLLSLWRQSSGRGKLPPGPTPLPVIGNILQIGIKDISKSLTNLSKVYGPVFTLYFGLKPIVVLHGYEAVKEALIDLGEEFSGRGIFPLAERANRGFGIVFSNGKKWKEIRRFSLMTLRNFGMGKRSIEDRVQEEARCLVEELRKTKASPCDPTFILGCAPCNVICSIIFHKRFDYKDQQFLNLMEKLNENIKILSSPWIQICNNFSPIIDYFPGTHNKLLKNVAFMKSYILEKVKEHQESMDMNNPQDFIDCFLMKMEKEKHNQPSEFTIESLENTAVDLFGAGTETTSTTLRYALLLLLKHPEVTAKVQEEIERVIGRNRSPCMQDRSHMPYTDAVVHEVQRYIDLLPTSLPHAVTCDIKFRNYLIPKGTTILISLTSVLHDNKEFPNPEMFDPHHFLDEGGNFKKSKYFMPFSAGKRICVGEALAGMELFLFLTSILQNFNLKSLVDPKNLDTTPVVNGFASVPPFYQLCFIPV

[21] = target: T5, CYP2C19 (Homo sapiens, UniProt P33261); test: in vitro; conditions: microsomes, pH 7.4
T5 sequence (P33261 whole entry): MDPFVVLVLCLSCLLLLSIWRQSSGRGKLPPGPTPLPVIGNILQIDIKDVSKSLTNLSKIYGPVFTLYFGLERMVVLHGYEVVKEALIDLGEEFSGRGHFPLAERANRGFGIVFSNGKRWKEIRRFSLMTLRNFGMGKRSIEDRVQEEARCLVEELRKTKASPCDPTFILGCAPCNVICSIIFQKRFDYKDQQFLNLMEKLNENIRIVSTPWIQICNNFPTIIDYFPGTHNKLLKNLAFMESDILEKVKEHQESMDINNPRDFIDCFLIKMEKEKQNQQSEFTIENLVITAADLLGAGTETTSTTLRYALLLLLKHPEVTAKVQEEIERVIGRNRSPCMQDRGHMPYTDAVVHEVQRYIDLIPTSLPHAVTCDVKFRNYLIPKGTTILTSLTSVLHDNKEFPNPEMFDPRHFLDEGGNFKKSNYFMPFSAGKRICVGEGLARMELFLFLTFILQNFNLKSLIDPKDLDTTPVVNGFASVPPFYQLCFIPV

[22] = target: CYP2D6 (Homo sapiens, UniProt P10635); test: in vitro; conditions: microsomes, pH 7.4
CYP2D6, sequence (P10635 whole entry): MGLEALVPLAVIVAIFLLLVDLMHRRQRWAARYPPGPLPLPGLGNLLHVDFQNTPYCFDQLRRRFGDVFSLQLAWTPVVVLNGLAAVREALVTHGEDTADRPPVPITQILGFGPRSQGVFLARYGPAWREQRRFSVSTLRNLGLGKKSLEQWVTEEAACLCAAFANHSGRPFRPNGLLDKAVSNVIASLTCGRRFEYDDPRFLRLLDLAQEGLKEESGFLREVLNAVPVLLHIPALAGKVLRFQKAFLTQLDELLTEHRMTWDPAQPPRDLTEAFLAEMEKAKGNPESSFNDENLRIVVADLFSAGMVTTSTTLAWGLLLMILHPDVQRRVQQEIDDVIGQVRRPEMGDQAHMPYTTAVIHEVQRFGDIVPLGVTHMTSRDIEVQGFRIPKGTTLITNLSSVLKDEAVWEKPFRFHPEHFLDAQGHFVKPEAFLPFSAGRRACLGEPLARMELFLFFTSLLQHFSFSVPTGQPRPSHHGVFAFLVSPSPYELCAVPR

[23] = target: T1, CYP3A; test: in vitro; conditions: microsomes
[24] = target: CYP1A2 (Homo sapiens, UniProt P05177); test: biochemical
CYP1A2, sequence (P05177 whole entry): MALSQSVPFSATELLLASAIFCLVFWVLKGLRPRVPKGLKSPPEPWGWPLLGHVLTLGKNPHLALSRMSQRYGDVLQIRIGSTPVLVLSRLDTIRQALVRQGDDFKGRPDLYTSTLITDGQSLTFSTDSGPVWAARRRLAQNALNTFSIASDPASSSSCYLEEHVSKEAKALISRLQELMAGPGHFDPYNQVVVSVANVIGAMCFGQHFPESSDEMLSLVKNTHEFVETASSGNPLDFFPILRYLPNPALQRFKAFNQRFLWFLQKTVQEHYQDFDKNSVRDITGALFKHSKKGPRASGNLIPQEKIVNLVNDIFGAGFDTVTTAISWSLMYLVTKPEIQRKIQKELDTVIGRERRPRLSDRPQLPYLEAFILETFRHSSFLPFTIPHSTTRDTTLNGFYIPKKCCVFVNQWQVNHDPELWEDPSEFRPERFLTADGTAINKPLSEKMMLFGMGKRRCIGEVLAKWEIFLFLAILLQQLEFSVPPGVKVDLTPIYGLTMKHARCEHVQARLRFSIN

[25] = target: T2, CYP2B6; test: biochemical
[26] = target: T3, CYP2C8; test: biochemical
[27] = target: T4, CYP2C9; test: biochemical
[28] = target: T5, CYP2C19; test: biochemical
[29] = female, Sprague Dawley, iv, 5 mg/kg

## O=C(O)c1cc(-c2ccc(/C=C3\SC(=S)N(CCc4ccccc4)C3=O)o2)ccc1Cl [NBCoV1]
[1]
  IC50: 0.0323 ± 0.0046 µM
[2]
  IC50: 0.0636 ± 0.0046 µM
[3]
  IC50: 0.039 ± 0.0082 µM
[4]
  IC50: 0.098 ± 0.004 µM
[5]
  IC50: 0.095 ± 0.022 µM
[6]
  IC50: 1.397 ± 0.012 µM
[7]
  IC100 (range of IC100 values detected in the three cell lines): 0.25 to 1 µM
[7]; read-out: IC50 (range over the three cell lines)
  IC50: 0.0323 to 0.0634 µM
[8]
  IC50: > 2 µM
[9]
  IC100: > 10 µM
[10]
  IC50: > 2 µM
[11]
  IC50: > 2 µM
[12]
  IC50: > 2 µM
[13]; 293T/ACE2
  IC50: 0.05 µM
[13]; read-out: IC50
  IC50: 0.045 µM
[14]; 0.0137 μM
  % of Control Enzyme Activity: 96.6%
[14]; 0.0412 μM
  % of Control Enzyme Activity: 97.0%
[14]; 0.123 μM
  % of Control Enzyme Activity: 94.8%
[14]; 0.370 μM, 0.37 µM
  % of Control Enzyme Activity: 96.3%
[14]; 1.11 μM
  % of Control Enzyme Activity: 94.6%
[14]; 3.33 μM
  % of Control Enzyme Activity: 82.2%
[14]; 10 μM
  % of Control Enzyme Activity: 59.9%
[15]; female, Sprague Dawley
  F% (bioavailability): 20.1%
[15]; [29]
  CLobs: 0.00013 (mg/kg)/(ng/mL)/h
  Vss_obs: 0.00053 (mg/kg)/(ng/mL)
[15]; iv, 5 mg/kg
  AUC0-t: 37,515.91 ng/mL ∗ h
[15]; po, 10 mg/kg
  AUC0-t: 12,023.00 ng/mL ∗ h
  Vz/F_obs: 0.01078 (mg/kg)/(ng/mL)
[16]
  half-life: 1.87 h
  microsomal CLint: 12.4 µL/min/mg
  remaining at 0.25 h: 101%
  remaining at 0.5 h: 80.5%
  remaining at 1 h: 68.9%
  remaining at 1.5 h: 69.5%
  remaining at 2 h: 41.6%
[17]
  fraction unbound: < 0.005
[17]; % Bound, single replicates (R1, R2)
  fraction unbound: < 0.005
[18]
  activity at 0.0137 µM: 97.5%
  activity at 0.0412 µM: 98.1%
  activity at 0.123 µM: 90.4%
  activity at 0.37 µM: 94.2%
  activity at 1.11 µM: 76.9%
  activity at 3.33 µM: 47%
  activity at 10 µM: 15.2%
[19]
  activity at 0.0137 µM: 102%
  activity at 0.0412 µM: 89%
  activity at 0.123 µM: 98.3%
  activity at 1.11 µM: 76.9%
  activity at 3.33 µM: 25.3%
  activity at 10 µM: 3.87%
[20]
  activity at 0.0137 µM: 99.4%
  activity at 0.0412 µM: 98.2%
  activity at 0.123 µM: 97.2%
  activity at 0.37 µM: 95.1%
  activity at 1.11 µM: 85.1%
  activity at 3.33 µM: 59.9%
  activity at 10 µM: 29.8%
[21]
  activity at 0.0137 µM: 103%
  activity at 0.0412 µM: 110%
  activity at 0.123 µM: 101%
  activity at 0.37 µM: 102%
  activity at 1.11 µM: 92%
  activity at 3.33 µM: 70.8%
  activity at 10 µM: 40.7%
[22]
  IC50: > 10 µM
  activity at 0.0137 µM: 95.8%
  activity at 0.0412 µM: 98.7%
  activity at 0.123 µM: 98.6%
  activity at 0.37 µM: 101%
  activity at 1.11 µM: 97%
  activity at 3.33 µM: 84.3%
  activity at 10 µM: 59.2%
[23]; pH 7.4
  IC50: > 10 µM
[23]; pH 7.4, % of Control Enzyme Activity, 0.0137 μM, n=1
  activity at 0.0137 µM: 96.7%
[23]; pH 7.4, % of Control Enzyme Activity, 0.0412 μM, n=1
  activity at 0.0412 µM: 97%
[23]; pH 7.4, % of Control Enzyme Activity, 0.123 μM, n=1
  activity at 0.123 µM: 94.5%
[23]; pH 7.4, % of Control Enzyme Activity, 0.370 μM, n=1
  activity at 0.37 µM: 95.1%
[23]; pH 7.4, % of Control Enzyme Activity, 1.11 μM, n=1
  activity at 1.11 µM: 95.9%
[23]; pH 7.4, % of Control Enzyme Activity, 3.33 μM, n=1
  activity at 3.33 µM: 88.2%
[23]; pH 7.4, % of Control Enzyme Activity, 10 μM, n=1
  activity at 10 µM: 61.6%
[24]
  IC50: 7.4 µM
[25]
  IC50: 3.19 µM
[26]
  IC50: 2.08 µM
[27]
  IC50: 5.01 µM
[28]
  IC50: 7.31 µM
